Measurements reported in US20060100168A1, “Method of treating cancer using adenosine and its analogs” (The Trustee of Boston University, priority 2002, published 2006).
Several values for one entry are separate records, joined by “and”; a condition that tells them apart may be missing. Equal entries are not always repeated.

Assays:
Assay type in all cases: cell-based, human
[1] = system: MCF-7 cells overexpressing ERα; test: Growth of MCF-7 cells transiently transfected with pcDNA3-ERα; conditions: 100 μM; one day; transfection efficiency approximately 40%
Procedure: Anchorage-dependent growth assay: Cells were plated into 6-well plates and grown overnight before treatments. The seeding concentration of MCF-7 cells was 2×10^5/well, which was determined during preliminary experiments as not allowing the cells to reach confluency within 3 days. Cells were treated either with vehicle or ligands, as indicated. Cells were detached by incubation with trypsin (Invitrogen, Carlsbad, Calif.) and counted with a hemacytometer before or after treatment. Transfections and Reporter Gene Assay: Transient transfection was performed using FuGene6 (Roche, Indianapolis, Ind.) transfection reagent according to manufacturer's protocol. Circular reporter plasmid pERE-Tk-Luc at 10 μg and 10 μg of pCMV-β-Gal (as a measure of efficiency of trasnfection) were transfected with 50 μl of FuGene6. Cells were split into 6 well plates 12 hours after transfection, and incubated overnight in fresh medium. […] Luciferase and β-galactosidase activities were measured as described before (43, 44).

[2] = system: estrogen receptor β (ERβ) mRNA; test: Semi-quantitative RT-PCR of ERβ mRNA in MCF-7 cells; conditions: 100 μM
Procedure: Total RNA preparation and Reverse Transcription Polymerase Chain Reaction (RT-PCR): Total RNA from MCF-7 cells was prepared with Trizol (Invitrogen, Carlsbad, Calif.) as described before (41). For reverse transcription, 2 μg of RNA were used in a […] with random primers and M-MLV reverse transcriptase (Invitrogen, Carlsbad, Calif.), following the manufacturer's protocol. To control for possible contamination from genomic DNA in subsequent PCR reactions, control reverse transcription reactions were carried out under identical conditions, only without reverse transcriptase. After reverse transcription, 5% of the product was used in each PCR reaction. For the experiments analyzing A3 adenosine receptor (A3AR) expression, 27 cycles were used in the PCR reactions. Specific primers were designed for human A3AR, which match to two separate exons, according to genomic sequences (from GenBank). Sequences for the sense and antisense A3AR primers are: 5′tccatcatgtccttgctg3′ (SEQ ID NO: 1) and 5′gcacatgacaaccaggg3′ (SEQ ID NO.: 2). In the experiments analyzing estrogen receptor a (ERα) mRNA, semi-quantitative PCR reactions were carried out with 23 cycles for ERα primers and 19 cycles for GAPDH primers (used as a control). The cycle numbers were tested in previous experiments not to produce saturation effects. […]

[3] = system: T47D cells; test: Anchorage-dependent growth assay; conditions: 100 μM, three days
[4] = system: MCF-7 cells; test: Cell cycle analysis by flow cytometry
Procedure: Flow Cytometry and Apoptosis Analysis: Cells were detached from tissue culture plates by trypsin treatment. Cells were collected by centrifugation at 1200 g for 5 minutes and washed once with PBS. Staining of cells with propidium iodide and analysis on a flow cytometer (FACScan, Becton Dickinson, Research Triangle Park, N.C.) was performed as described before (42). Data were analyzed with CellQuest software (Becton Dickinson, Research Triangle Park, N.C.). The percentage of cells appearing with a ploidy level smaller than a diploid content was calculated as an estimate of cells undergoing apoptosis.

Question: Which results are given for `CNC(=O)[C@H]1O[C@@H](n2cnc3c(NCc4cccc(I)c4)ncnc32)[C@H](O)[C@@H]1O` [IB-MECA, N^6-(3-iodobenzyl)adenosine-5′-N-methyluronamide]?
Answer: Effect on growth of ERα-overexpressing cells [1]: moderate effect on growth; Estrogen receptor β message level [2]: not significantly reduced; Cell counts after treatment compared to day 0, in words [3]: affected more severely; Percentage of cells in G2/M (tetraploid DNA content) ([4]; 100 μM for 2 days, vehicle 24.6%): 23.4% and 23%; Percentage of cells in S phase ([4]; 100 μM for 2 days, vehicle 25.2%): 12.3% and 12%; Percentage of cells in G1 phase (diploid DNA content) ([4]; 100 μM for 2 days, vehicle 50.2%): 64.2% and 64%; Percentage change of diploid (G0 or G1 phase) population compared to vehicle-treated cells ([4]; 100 μM, except adenosine (500 μM) and inosine (1 mM), first number in parentheses): 28%; Percentage change of S phase population compared to vehicle-treated cells ([4]; 100 μM, except adenosine (500 μM) and inosine (1 mM), second number in parentheses): −51%; Percentage change of tetraploid (G2 or M phase) population compared to vehicle-treated cells ([4]; 100 μM, except adenosine (500 μM) and inosine (1 mM), third number in parentheses): −5%
